Measured values as given in PubChem BioAssay (NCI).
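Protocol summary: plate cells (96-well), add compound at 5 concentrations, incubate 48 h, interpolate endpoints linearly. At the TGI there is no net growth.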

Assays:
Experiment in all cases: NCI tumour cell line growth inhibition, 48 h
IGROV1 ovarian = tested on: IGROV1 ovarian
MALME-3M melanoma = tested on: MALME-3M melanoma
MOLT-4 leukemia = tested on: MOLT-4 leukemia
SR leukemia = tested on: SR leukemia
T-47D breast = tested on: T-47D breast
OVCAR-3 ovarian = tested on: OVCAR-3 ovarian
MDA-N = tested on: MDA-N
SN12C renal = tested on: SN12C renal
786-0 renal = tested on: 786-0 renal
HCT-15 colon = tested on: HCT-15 colon
SNB-75 CNS = tested on: SNB-75 CNS
ACHN renal = tested on: ACHN renal
LOX IMVI melanoma = tested on: LOX IMVI melanoma
HOP-62 NSCLC = tested on: HOP-62 NSCLC
SF-539 CNS = tested on: SF-539 CNS
SW-620 colon = tested on: SW-620 colon
MCF7 breast = tested on: MCF7 breast
TK-10 renal = tested on: TK-10 renal
HT29 colon = tested on: HT29 colon
SK-OV-3 ovarian = tested on: SK-OV-3 ovarian
HCT-116 colon = tested on: HCT-116 colon
BT-549 breast = tested on: BT-549 breast
HOP-92 NSCLC = tested on: HOP-92 NSCLC
UACC-62 melanoma = tested on: UACC-62 melanoma
SF-295 CNS = tested on: SF-295 CNS
SNB-19 CNS = tested on: SNB-19 CNS
UACC-257 melanoma = tested on: UACC-257 melanoma
SK-MEL-5 melanoma = tested on: SK-MEL-5 melanoma
U251 CNS = tested on: U251 CNS
NCI-H460 lung = tested on: NCI-H460 lung
OVCAR-4 ovarian = tested on: OVCAR-4 ovarian
NCI/ADR-RES ovarian = tested on: NCI/ADR-RES ovarian
HCC-2998 colon = tested on: HCC-2998 colon
CAKI-1 renal = tested on: CAKI-1 renal
NCI-H226 lung = tested on: NCI-H226 lung
A498 renal = tested on: A498 renal
HS 578T breast = tested on: HS 578T breast
KM12 colon = tested on: KM12 colon
MDA-MB-231 breast = tested on: MDA-MB-231 breast
SK-MEL-2 melanoma = tested on: SK-MEL-2 melanoma
M14 melanoma = tested on: M14 melanoma
NCI-H522 lung = tested on: NCI-H522 lung
MDA-MB-435 = tested on: MDA-MB-435
SK-MEL-28 melanoma = tested on: SK-MEL-28 melanoma
EKVX NSCLC = tested on: EKVX NSCLC
A549 NSCLC = tested on: A549 NSCLC
COLO 205 colon = tested on: COLO 205 colon
DU-145 prostate = tested on: DU-145 prostate
OVCAR-8 ovarian = tested on: OVCAR-8 ovarian
HL-60(TB) leukemia = tested on: HL-60(TB) leukemia
NCI-H23 lung = tested on: NCI-H23 lung
UO-31 renal = tested on: UO-31 renal
K-562 leukemia = tested on: K-562 leukemia
OVCAR-5 ovarian = tested on: OVCAR-5 ovarian
SF-268 CNS = tested on: SF-268 CNS
RXF 393 renal = tested on: RXF 393 renal
RPMI-8226 leukemia = tested on: RPMI-8226 leukemia
PC-3 prostate = tested on: PC-3 prostate
CCRF-CEM leukemia = tested on: CCRF-CEM leukemia

Measured: TGI

COc1ccc2c3c(ccc2c1)NC(C(=O)O)CC3 (centres undefined)
56.9 µM: MOLT-4 leukemia
58.4 µM: SR leukemia
79.1 µM: T-47D breast
54.1 µM: RPMI-8226 leukemia
64.7 µM: SK-MEL-5 melanoma
82.9 µM: HL-60(TB) leukemia
not listed: CCRF-CEM leukemia
> 100 µM: all other assays above

Cc1cc(C)c(-n2c(C)c(C)c(C#N)c2N)c(C)c1
78.9 µM: ACHN renal
37 µM: HL-60(TB) leukemia
40.8 µM: LOX IMVI melanoma
68.5 µM: MOLT-4 leukemia
74.4 µM: HOP-92 NSCLC
38.4 µM: SR leukemia
97.1 µM: A498 renal
94.8 µM: RXF 393 renal
45.5 µM: CCRF-CEM leukemia
78.5 µM: K-562 leukemia
51.7 µM: SK-MEL-2 melanoma
54.6 µM: RPMI-8226 leukemia
57.4 µM: NCI-H522 lung
48.9 µM: HCT-116 colon
89 µM: PC-3 prostate
37.2 µM: SK-MEL-5 melanoma
78.6 µM: NCI-H460 lung
60.8 µM: UACC-257 melanoma
69.8 µM: SF-539 CNS
87.8 µM: MALME-3M melanoma
38.9 µM: COLO 205 colon
49.7 µM: U251 CNS
87.6 µM: EKVX NSCLC
not listed: MCF7 breast | UACC-62 melanoma | HCC-2998 colon
> 100 µM: all other assays above
